Measured values published in ChEMBL document CHEMBL1201862, “PubChem BioAssay data set” (2004).
The source made the active and inactive calls.

Legend:
Assay type in all cases: functional
[1] = molecular target: Ribosomal protein S6 kinase alpha-3 (Homo sapiens, UniProt P51812);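 note: measured within a kinome-wide profiling panel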
[2] = molecular target: Dual specificity protein kinase CLK2 (Homo sapiens, UniProt P49760)
[3] = molecular target: Tyrosine-protein kinase JAK2 (Homo sapiens, UniProt O60674);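 note: JAK2 tested as one member of a kinase panel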
[4] = molecular target: cGMP-dependent protein kinase 1 (Homo sapiens, UniProt Q13976);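 note: value from a kinome panel screen with PRKG1 as the panel member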
[5] = molecular target: Phosphorylase b kinase gamma catalytic chain, liver/testis isoform (Homo sapiens, UniProt P15735);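 note: PHKG2 measured as one member of a kinome-wide kinase panel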
[6] = molecular target: Serine/threonine-protein kinase PLK3 (Homo sapiens, UniProt Q9H4B4)
[7] = molecular target: RAC-gamma serine/threonine-protein kinase (Homo sapiens, UniProt Q9Y243)
[8] = molecular target: Protein kinase C delta type (Homo sapiens, UniProt Q05655)
[9] = molecular target: ALK tyrosine kinase receptor (Homo sapiens, UniProt Q9UM73);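 note: ALK tested as one member of a kinase panel screen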
[10] = molecular target: Tyrosine-protein kinase receptor TYRO3 (Homo sapiens, UniProt Q06418);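 note: TYRO3 value obtained as one member of a kinome-wide profiling panel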
[11] = molecular target: Serine/threonine-protein kinase D3 (Homo sapiens, UniProt O94806);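 note: determined within a kinase panel screen, with PRKCN as the panel member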
[12] = molecular target: Serine/threonine-protein kinase 17A (Homo sapiens, UniProt Q9UEE5)
[13] = molecular target: Tyrosine-protein kinase Lck (Homo sapiens, UniProt P06239);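 note: lck was assayed as one member of a kinase panel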
[14] = molecular target: Serine/threonine-protein kinase Chk2 (Homo sapiens, UniProt O96017);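 note: CHEK2 entry within a kinome-wide screening panel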
SRSF protein kinase 1 = SRSF protein kinase 1 (Homo sapiens, UniProt Q96SB4);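 note: measured as one member of a kinome-wide kinase profiling panel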
[15] = molecular target: MAP kinase-activated protein kinase 5 (Homo sapiens, UniProt Q8IW41);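 note: measured as one member of a kinome panel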
[16] = molecular target: Cell division cycle 7-related protein kinase (Homo sapiens, UniProt O00311);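 note: value obtained from a kinome-wide kinase panel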
[17] = molecular target: Fibroblast growth factor receptor 1 (Homo sapiens, UniProt P11362)
[18] = molecular target: Casein kinase I isoform gamma-1 (Homo sapiens, UniProt Q9HCP0);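 note: measured as the CSNK1G1 member of a kinome profiling panel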
[19] = molecular target: Tyrosine-protein kinase Lyn (Homo sapiens, UniProt P07948);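 note: lyn as one member of a kinase panel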
[20] = molecular target: Tyrosine-protein kinase ITK/TSK (Homo sapiens, UniProt Q08881);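 note: affinity for ITK measured as one member of a broad kinase panel profiling binding across the kinome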
LIM domain kinase 1 = LIM domain kinase 1 (Homo sapiens, UniProt P53667); experiment: Navigating the Kinome. Panel member name: LIMK1
[21] = molecular target: Tyrosine-protein kinase Blk (Homo sapiens, UniProt P51451);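 note: obtained as one member of a kinome-wide kinase assay panel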
[22] = molecular target: Homeodomain-interacting protein kinase 2 (Homo sapiens, UniProt Q9H2X6);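 note: measured within a kinome-wide kinase profiling panel, HIPK2 being one panel member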
[23] = molecular target: Mitogen-activated protein kinase kinase kinase 20 (Homo sapiens, UniProt Q9NYL2)
[24] = molecular target: Glycogen synthase kinase-3 alpha (Homo sapiens, UniProt P49840);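 note: GSK3A result taken from a broad kinome-wide kinase panel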
[25] = molecular target: Mitogen-activated protein kinase kinase kinase kinase 2 (Homo sapiens, UniProt Q12851);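 note: measured as one member of a kinome-wide kinase panel, with MAP4K2 as the panel entry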
[26] = molecular target: MAP kinase-activated protein kinase 3 (Homo sapiens, UniProt Q16644);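 note: value comes from a kinome-wide profiling panel in which MAPKAPK3 is one of the panel members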
[27] = molecular target: Serine/threonine-protein kinase Chk1 (Homo sapiens, UniProt O14757);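 note: measured as one member of a kinome-wide kinase profiling panel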
[28] = molecular target: Cyclin-dependent kinase 5 (Homo sapiens, UniProt Q00535);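 note: CDK5 measured as one member of a kinase profiling panel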
[29] = molecular target: Mitogen-activated protein kinase 1 (Homo sapiens, UniProt P28482)
[30] = molecular target: Interleukin-1 receptor-associated kinase 1 (Homo sapiens, UniProt P51617);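 note: IRAK1 tested as one member of a kinome panel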
[31] = molecular target: Maternal embryonic leucine zipper kinase (Homo sapiens, UniProt Q14680)
Aurora kinase B = Aurora kinase B (Homo sapiens, UniProt Q96GD4)
[32] = molecular target: Interleukin-1 receptor-associated kinase 4 (Homo sapiens, UniProt Q9NWZ3)
[33] = molecular target: RAC-alpha serine/threonine-protein kinase (Homo sapiens, UniProt P31749);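 note: AKT1 affinity measured as one member of a kinome-wide kinase profiling panel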
[34] = molecular target: Vascular endothelial growth factor receptor 3 (Homo sapiens, UniProt P35916);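 note: value from a kinome-wide profiling panel, with FLT4 as the panel member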
[35] = molecular target: Rho-associated protein kinase 1 (Homo sapiens, UniProt Q13464);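 note: measured within a broad kinome-wide panel profiling many kinases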
[36] = molecular target: Homeodomain-interacting protein kinase 4 (Homo sapiens, UniProt Q8NE63)
[37] = molecular target: Cyclin-dependent kinase 1 (Homo sapiens, UniProt P06493);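 note: Kinome-wide panel profiling, with the target listed as panel member CDC2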
[38] = molecular target: Serine/threonine-protein kinase DCLK1 (Homo sapiens, UniProt O15075);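 note: affinity for DCLK1 (listed as DCAMKL1) measured as one member of a kinome-wide kinase profiling panel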
[39] = molecular target: Fibroblast growth factor receptor 3 (Homo sapiens, UniProt P22607)
[40] = molecular target: Serine/threonine-protein kinase PLK1 (Homo sapiens, UniProt P53350);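 note: PLK1 measured as one member of a kinome-wide profiling panel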
[41] = molecular target: Receptor tyrosine-protein kinase erbB-4 (Homo sapiens, UniProt Q15303);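 note: ERBB4 member of a kinome-wide kinase profiling panel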
[42] = molecular target: cAMP-dependent protein kinase catalytic subunit alpha (Homo sapiens, UniProt P17612)
[43] = molecular target: Dual specificity protein kinase CLK4 (Homo sapiens, UniProt Q9HAZ1)
[44] = molecular target: Serine/threonine-protein kinase MRCK alpha (Homo sapiens, UniProt Q5VT25)

ALK tyrosine kinase receptor, sequence (Q9UM73 whole entry): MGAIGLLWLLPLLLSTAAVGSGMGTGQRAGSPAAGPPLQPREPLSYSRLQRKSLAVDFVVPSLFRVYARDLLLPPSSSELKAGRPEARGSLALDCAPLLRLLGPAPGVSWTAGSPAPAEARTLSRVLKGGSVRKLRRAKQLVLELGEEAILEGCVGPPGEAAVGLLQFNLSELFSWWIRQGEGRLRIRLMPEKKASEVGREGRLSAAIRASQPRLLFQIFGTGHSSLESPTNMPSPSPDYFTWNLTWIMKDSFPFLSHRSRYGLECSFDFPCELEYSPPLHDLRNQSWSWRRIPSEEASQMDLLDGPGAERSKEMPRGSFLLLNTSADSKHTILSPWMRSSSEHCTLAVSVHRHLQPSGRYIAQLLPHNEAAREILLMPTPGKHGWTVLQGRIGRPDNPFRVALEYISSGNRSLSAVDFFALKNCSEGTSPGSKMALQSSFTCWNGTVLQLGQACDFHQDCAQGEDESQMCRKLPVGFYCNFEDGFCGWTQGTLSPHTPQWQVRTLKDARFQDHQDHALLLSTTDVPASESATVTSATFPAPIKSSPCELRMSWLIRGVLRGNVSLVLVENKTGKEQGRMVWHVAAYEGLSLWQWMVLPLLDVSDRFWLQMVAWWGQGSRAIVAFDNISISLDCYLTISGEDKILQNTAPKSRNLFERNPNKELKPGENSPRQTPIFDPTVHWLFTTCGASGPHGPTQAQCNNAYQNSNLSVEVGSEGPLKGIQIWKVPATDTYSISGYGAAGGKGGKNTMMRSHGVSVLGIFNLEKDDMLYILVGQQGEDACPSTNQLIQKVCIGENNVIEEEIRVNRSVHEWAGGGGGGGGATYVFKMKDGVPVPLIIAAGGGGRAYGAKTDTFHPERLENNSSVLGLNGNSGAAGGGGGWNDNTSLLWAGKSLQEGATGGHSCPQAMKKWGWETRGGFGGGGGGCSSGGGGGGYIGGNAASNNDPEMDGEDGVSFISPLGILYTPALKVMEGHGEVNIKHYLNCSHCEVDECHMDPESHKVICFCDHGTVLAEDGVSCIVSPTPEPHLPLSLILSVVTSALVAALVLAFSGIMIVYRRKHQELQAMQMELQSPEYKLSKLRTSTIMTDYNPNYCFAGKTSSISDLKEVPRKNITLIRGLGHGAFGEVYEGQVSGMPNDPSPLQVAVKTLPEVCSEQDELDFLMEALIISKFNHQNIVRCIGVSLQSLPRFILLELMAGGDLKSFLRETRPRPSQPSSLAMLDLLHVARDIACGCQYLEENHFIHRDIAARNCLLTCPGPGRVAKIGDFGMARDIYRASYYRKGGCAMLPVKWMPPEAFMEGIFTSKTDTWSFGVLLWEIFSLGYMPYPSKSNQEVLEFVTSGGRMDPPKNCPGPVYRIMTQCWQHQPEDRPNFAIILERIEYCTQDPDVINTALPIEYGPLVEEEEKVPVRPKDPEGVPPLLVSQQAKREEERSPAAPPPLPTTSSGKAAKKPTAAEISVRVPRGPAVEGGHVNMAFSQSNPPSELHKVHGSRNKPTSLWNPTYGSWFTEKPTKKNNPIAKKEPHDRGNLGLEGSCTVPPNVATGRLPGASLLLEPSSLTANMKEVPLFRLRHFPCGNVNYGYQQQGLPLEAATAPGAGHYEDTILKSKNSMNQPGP
Serine/threonine-protein kinase DCLK1, sequence (O15075 whole entry): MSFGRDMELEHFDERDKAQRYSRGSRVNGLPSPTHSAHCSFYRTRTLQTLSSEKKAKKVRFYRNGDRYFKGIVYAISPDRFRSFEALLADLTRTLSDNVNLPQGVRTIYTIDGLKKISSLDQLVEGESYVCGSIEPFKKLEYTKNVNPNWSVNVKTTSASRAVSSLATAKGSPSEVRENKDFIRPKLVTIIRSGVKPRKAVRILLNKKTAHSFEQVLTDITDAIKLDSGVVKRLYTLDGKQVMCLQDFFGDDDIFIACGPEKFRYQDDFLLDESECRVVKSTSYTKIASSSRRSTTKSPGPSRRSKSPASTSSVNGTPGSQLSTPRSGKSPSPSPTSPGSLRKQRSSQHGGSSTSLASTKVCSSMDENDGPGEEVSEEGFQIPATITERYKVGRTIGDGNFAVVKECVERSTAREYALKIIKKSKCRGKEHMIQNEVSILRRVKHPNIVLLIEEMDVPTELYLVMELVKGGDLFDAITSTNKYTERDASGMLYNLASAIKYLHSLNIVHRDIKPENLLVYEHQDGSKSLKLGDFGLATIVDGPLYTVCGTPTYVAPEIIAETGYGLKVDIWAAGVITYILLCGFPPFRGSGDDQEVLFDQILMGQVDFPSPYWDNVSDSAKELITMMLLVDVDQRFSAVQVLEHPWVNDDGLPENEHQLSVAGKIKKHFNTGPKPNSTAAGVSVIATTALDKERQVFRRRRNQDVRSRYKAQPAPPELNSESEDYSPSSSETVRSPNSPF
Protein kinase C delta type, sequence (Q05655 whole entry): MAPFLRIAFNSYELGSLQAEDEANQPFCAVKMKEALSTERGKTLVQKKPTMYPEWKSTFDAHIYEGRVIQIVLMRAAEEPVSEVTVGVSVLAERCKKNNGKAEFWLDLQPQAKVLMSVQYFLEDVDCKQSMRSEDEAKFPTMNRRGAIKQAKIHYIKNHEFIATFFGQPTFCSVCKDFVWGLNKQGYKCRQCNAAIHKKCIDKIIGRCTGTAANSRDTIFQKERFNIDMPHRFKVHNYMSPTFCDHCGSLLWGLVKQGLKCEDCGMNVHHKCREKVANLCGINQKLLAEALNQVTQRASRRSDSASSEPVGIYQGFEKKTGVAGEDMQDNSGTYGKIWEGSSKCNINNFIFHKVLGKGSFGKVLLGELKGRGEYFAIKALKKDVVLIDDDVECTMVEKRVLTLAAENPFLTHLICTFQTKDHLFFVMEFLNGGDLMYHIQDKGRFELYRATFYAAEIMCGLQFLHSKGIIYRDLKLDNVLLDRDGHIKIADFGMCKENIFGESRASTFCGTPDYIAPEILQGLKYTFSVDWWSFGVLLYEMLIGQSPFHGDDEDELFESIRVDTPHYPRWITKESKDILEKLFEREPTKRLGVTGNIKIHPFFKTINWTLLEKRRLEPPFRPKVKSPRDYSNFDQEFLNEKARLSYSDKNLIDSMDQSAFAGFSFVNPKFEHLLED
Vascular endothelial growth factor receptor 3, sequence (P35916 whole entry): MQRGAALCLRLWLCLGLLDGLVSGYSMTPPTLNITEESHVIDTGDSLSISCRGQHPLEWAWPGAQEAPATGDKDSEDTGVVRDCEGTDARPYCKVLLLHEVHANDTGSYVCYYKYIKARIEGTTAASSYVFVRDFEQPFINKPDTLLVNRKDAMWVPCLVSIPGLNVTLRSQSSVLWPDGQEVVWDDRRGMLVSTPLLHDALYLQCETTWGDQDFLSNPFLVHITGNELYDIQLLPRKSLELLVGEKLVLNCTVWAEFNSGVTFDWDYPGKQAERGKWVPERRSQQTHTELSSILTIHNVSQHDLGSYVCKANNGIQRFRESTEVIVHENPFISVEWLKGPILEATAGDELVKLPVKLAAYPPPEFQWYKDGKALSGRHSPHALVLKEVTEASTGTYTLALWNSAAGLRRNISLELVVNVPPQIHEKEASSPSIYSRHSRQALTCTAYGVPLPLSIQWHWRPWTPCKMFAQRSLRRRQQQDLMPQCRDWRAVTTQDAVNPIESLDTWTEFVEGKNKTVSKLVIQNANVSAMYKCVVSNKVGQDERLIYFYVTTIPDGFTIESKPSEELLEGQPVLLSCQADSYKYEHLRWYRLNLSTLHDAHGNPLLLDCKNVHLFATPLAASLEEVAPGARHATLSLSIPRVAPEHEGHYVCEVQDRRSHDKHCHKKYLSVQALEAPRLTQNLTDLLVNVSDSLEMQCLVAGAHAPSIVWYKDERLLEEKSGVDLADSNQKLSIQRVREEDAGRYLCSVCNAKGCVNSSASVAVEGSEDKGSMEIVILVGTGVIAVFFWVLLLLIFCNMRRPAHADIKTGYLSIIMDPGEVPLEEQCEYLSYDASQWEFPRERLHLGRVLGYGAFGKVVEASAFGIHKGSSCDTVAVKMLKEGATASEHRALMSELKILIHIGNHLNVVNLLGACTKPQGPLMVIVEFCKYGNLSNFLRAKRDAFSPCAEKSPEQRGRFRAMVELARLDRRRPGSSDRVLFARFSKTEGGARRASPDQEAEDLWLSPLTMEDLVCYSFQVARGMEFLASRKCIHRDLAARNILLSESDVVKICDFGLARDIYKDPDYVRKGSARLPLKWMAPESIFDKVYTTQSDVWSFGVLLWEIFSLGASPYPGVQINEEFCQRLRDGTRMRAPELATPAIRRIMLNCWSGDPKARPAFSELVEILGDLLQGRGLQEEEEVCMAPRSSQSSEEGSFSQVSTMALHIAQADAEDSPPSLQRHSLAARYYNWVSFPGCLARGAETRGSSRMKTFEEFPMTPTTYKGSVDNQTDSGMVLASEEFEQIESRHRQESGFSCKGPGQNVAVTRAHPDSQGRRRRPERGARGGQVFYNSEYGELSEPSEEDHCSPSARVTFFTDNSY
Phosphorylase b kinase gamma catalytic chain, liver/testis isoform, sequence (P15735 whole entry, canonical isoform): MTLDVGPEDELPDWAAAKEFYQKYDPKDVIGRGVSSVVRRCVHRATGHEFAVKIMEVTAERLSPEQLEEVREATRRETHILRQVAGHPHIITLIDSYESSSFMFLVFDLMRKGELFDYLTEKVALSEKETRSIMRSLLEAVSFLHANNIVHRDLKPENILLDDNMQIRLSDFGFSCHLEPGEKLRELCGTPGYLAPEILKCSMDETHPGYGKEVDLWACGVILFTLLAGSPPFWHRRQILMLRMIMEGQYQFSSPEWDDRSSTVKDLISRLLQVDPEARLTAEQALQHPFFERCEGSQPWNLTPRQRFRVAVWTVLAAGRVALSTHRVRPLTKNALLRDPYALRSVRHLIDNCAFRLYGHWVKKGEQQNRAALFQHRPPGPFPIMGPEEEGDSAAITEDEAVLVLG
Cyclin-dependent kinase 1, sequence (P06493 whole entry): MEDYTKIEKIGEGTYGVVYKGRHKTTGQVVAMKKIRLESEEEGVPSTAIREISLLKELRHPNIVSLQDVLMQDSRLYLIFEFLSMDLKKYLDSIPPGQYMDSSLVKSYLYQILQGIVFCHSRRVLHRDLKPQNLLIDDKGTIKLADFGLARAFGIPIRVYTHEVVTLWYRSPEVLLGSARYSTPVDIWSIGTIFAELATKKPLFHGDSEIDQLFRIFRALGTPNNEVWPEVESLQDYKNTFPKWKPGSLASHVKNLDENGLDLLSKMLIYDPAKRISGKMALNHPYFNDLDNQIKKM

NC(=O)Cn1cc(-c2cc(-c3cc4ccccc4s3)c3[nH]ncc3c2)c2nc(N)ncc21 was tested, and the Ki [1] was 5.01 µM (active), the Ki [2] was 1 µM (active) and the Ki [3] was > 1.58 µM (inactive). The Ki [4] was 0.398 µM (active), the Ki [5] was 3.16 µM (active) and the Ki [6] was > 7.94 µM (inactive). For the same compound, the Ki [7] was > 10 µM (inactive), the Ki [8] was 5.01 µM (active) and the Ki [9] was > 1.26 µM (inactive). For the same compound, the Ki [10] was > 2 µM (inactive), the Ki [11] was 1 µM (active) and the Ki [12] was 0.251 µM (active). The Ki [13] was > 2.51 µM (inactive), the Ki [14] was 0.0398 µM (active) and the Ki (SRSF protein kinase 1) was 2 µM (active). For the same compound, the Ki [15] was 0.631 µM (active), the Ki [16] was 0.126 µM (active) and the Ki [17] was > 5.01 µM (inactive). The Ki [18] was > 6.31 µM (inactive), the Ki [19] was > 1.58 µM (inactive) and the Ki [20] was > 1.58 µM (inactive). For the same compound, the Ki (LIM domain kinase 1) was 3.98 µM (active), the Ki [21] was > 1.58 µM (inactive) and the Ki [22] was > 3.16 µM (inactive). The Ki [23] was > 7.94 µM (inactive), the Ki [24] was 0.0501 µM (active) and the Ki [25] was 0.501 µM (active). For the same compound, the Ki [26] was 10 µM (active), the Ki [27] was > 7.94 µM (inactive) and the Ki [28] was 0.794 µM (active). For the same compound, the Ki [29] was > 7.94 µM (inactive), the Ki [30] was 7.94 µM (active) and the Ki [31] was > 1.58 µM (inactive). The Ki (Aurora kinase B) was 3.98 µM (active), the Ki [32] was > 10 µM (inactive) and the Ki [33] was > 7.94 µM (inactive). For the same compound, the Ki [34] was 2.51 µM (active), the Ki [35] was 1.58 µM (active) and the Ki [36] was > 7.94 µM (inactive). For the same compound, the Ki [37] was 1.58 µM (active), the Ki [38] was > 10 µM (inactive) and the Ki [39] was > 2 µM (inactive). For the same compound, the Ki [40] was > 7.94 µM (inactive), the Ki [41] was > 3.98 µM (inactive) and the Ki [42] was 0.631 µM (active). The Ki [43] was 0.0251 µM (active) and the Ki [44] was 3.98 µM (active).
